ChEMBL document CHEMBL1143688 (J Med Chem, 2007)

Tests used:
Phosphodiesterase 3 = Phosphodiesterase 3 (Homo sapiens, UniProt Q14432+Q13370); assay: Inhibition of human platelet PDE3
Plasma = assay: Inhibition of 10.0 ug/mL collagen-induced platelet aggregation in human platelet rich plasma; assay type: functional

Cc1c(OCCN2CCOCC2)ccc2c(N3CCNCC3)cc(=O)oc12
IC50 (Phosphodiesterase 3): 0.078 µM

O=c1cc(N2CCNCC2)c2ccccc2o1
IC50 (Plasma): 36 µM

O=C1CCc2cc(OCCCCc3nnnn3C3CCCCC3)ccc2N1 [CILOSTAZOL]
IC50 (Phosphodiesterase 3): 0.28 µM

O=c1cc(N2CCNCC2)oc2ccccc12
IC50 (Plasma): 60 µM

Cc1c(OCc2cccnc2)ccc2c(N3CCNCC3)cc(=O)oc12
IC50 (Phosphodiesterase 3): 0.037 µM
